Patent publication US7655671B2, “Morphinan derivatives, the quaternary ammonium salts thereof substituted in position 14, method for production and use thereof” (priority 2002, dated 2010)
Read-outs that look alike come from different tables or passages of the source.

Assays:
μ-receptors = target: T1, μ-receptors (Mus musculus, UniProt P42866); assay: Antagonistic activity in the vas deferens preparation of the mouse using DAMGO; assay type: biochemical; parameters: Ke (vM) (μ-receptors): unit not given here
T1 construct: Vas Deferens Preparation of the Mouse; from tissue; host or cells: mouse vas deferens

μ-opioid receptors = target: T2, μ-opioid receptors (Rattus norvegicus, UniProt P33535); assay: Opioid receptor binding studies on rat's brain homogenisates with [3H]DAMGO
T2 construct: from tissue; host or cells: rat brain homogenate

rats = assay: Rat tail flick test (analgesia); assay type: in vivo; conditions: for ED50 (μg/rat, icv): rats of 120 g; for ED50: sc, read-out: ED50 (μg/kg, sc)
Procedure: To determine the analgesic activity of quaternised compounds, a test on rats, the “Rat Tail Flick Test”, was used. The test was carried out as described earlier (Zs. Fürst et al., Eur. J. Pharmacol. 1993; 236: 209-215).

mice [1] = assay: Hot-plate test (analgesia); assay type: in vivo, mouse; conditions: subcutaneous application
Procedure: A test on mice (“hot-plate test”) was carried out as described earlier (E. L. May et al., J. Med. Chem. 2000; 43, 5030-5036).

mice [2] = assay: animal or person; assay type: in vivo; conditions: mouse tail flick test, subcutaneous application
[3] = [3H]DAMGO as radio-ligand, rat's brain homogenisates, read-out: Ki (nM) (μ-receptors)
[4] = rat tail flick test, subcutaneous application
[5] = rat tail flick test, intracerebroventricular application

T2 sequence (P33535 whole entry): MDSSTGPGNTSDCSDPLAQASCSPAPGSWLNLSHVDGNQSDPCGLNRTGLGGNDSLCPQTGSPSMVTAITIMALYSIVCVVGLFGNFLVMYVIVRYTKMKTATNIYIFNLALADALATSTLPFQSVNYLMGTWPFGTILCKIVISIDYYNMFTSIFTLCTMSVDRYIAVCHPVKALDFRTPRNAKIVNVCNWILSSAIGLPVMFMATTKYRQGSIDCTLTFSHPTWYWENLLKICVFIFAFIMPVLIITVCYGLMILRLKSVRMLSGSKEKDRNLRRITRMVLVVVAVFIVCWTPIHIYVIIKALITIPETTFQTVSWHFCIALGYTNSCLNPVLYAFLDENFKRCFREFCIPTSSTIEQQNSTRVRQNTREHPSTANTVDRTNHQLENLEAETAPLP
T1 sequence (P42866 whole entry): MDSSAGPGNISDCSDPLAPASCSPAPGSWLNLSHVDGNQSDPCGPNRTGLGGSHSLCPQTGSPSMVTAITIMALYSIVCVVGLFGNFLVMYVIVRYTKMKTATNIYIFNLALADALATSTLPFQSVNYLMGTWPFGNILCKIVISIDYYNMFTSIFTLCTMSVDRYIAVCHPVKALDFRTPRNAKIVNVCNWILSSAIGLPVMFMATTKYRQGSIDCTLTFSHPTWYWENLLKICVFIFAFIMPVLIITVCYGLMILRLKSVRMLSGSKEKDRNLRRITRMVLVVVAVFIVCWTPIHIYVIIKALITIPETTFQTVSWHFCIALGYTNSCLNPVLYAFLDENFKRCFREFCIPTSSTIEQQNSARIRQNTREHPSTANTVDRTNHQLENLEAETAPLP

SMILES	Ki (μ-opioid receptors; [3]) [nM]	Ki (μ-opioid receptors) [nM]	ED50 (μg/rat, icv) (rats; [5]) [μg/rat]	analgesic effect (in words) (rats; [4])	ED50 (rats; [4]) [µg/kg]	melting point [°C]	also measured
COc1c(O)ccc2c1[C@]13CCN(CC4CC4)[C@H](C2)[C@]1(OC)CCC(=O)C3 [3-hydroxycyprodime, reference compound]	6.15						Ke (vM) (μ-receptors) (μ-receptors; antagonistic Ke against DAMGO): 5.62; affinity to μ-opioid receptors (in words) (μ-opioid receptors; [3H]DAMGO, rat's brain homogenisates): clearly lower affinity
CO[C@@]12CCC(=O)[C@]3(C)Oc4c(O)ccc5c4[C@@]31CCN(C)[C@@H]2C5 [14-methoxymetopon, reference compound]	0.55						ED50 (μg/kg, sc) (rats; [4]): 7.2 µg/kg; ED50 (μg/kg, sc) (mice [1]): 30 µg/kg; ED50 (μg/kg, sc) (mice [2]): 30 µg/kg
C[N+]1(C)CC[C@]23c4c5ccc(O)c4O[C@H]2C(=O)CC[C@@]3(OCCCc2ccccc2)[C@H]1C5.[I-] [Compound 38, 4,5α-epoxy-3-hydroxy-17,17-dimethyl-6-oxo-14β-[(3-phenylpropyl)oxy]morphinanium-iodide]		4.11	12	very high analgesic effect	120	164 to 170	
C=CC[N@@+]1(C)CC[C@]23c4c5ccc(O)c4O[C@H]2C(=O)CC[C@@]3(OC)[C@H]1C5.[I-] [Compound 42, (17R)-17-allyl-4,5α-epoxy-3-hydroxy-14β-methoxy-17-methyl-6-oxomorphinanium-iodide]		5.93	0.22	very high analgesic effect	16	178 to 181	ability to overcome the blood-brain barrier (rats; inferred from icv versus sc activity): only to a limited degree; analgesic activity (in words) (rats; [5]): extremely active
C[N@+]1(CC2CC2)CC[C@]23c4c5ccc(O)c4O[C@H]2C(=O)CC[C@@]3(OCCCc2ccccc2)[C@H]1C5.[I-] [Compound 48, (17R)-17-cyclopropylmethyl-4,5α-epoxy-3-hydroxy-17-methyl-6-oxo-14β-[(3-phenylpropyl)oxy]morphinanium-iodide]		0.93				175 to 176	antagonistic activity to μ-opioid receptors (in words) (μ-receptors; DAMGO): very high antagonistic activity
CN1CC[C@]23c4c5ccc(O)c4O[C@H]2[C@@H](O)C=C[C@H]3[C@H]1C5 [Morphine, reference compound]					1900		
